Values joined by “and” are separate entries in the source; they are usually repeats but may differ in a detail not shown here. Equal values may be shown once.
Assays:
[1] = system: HMGEC (immortalized human meibomian gland epithelial cells); assay: PPARγ-mediated lipid synthesis activity in HMGECs (LipidTox Green neutral lipid staining); type: cell-based; conditions: for Effect on lipid synthesis (in words): compared with Rosi
Method: Extracts of loquat and ginger identified in Example 1 are tested for their effect on lipid synthesis and PPARγ receptor activation using HMGECs. In particular, HMGECs are plated on collagen coated glass cover slips and treated with samples of each extract (varying concentrations in Media 1 with 0.1% DMSO), positive control (Rosi, 30 μM in Media 1 with 0.1% DMSO), and negative control (Media 1 with 0.1% DMSO) and incubated for 6 days. The treated cells are then fixed, stained with LipidTox Green, and the area of neutral lipid staining quantified.

[2] = system: PPARγ response genes ADFP, ELOVL4, and ANGPTL4; assay: Real-time PCR of PPARγ response gene expression; type: cell-based; conditions: FIGS. 1-4
Method: Loquat Extract #1 (“538”), and known phytochemical components thereof (oleanolic acid (“OA”); ursolic acid (“UA”)), are analyzed by real-time PCR (BioRad CFX96 Thermal Cycler, Hercules, Calif. (or equivalent)), to assess sample-induced expression of the PPARγ response genes ADFP, ELOVL4, and ANGPTL4 via mRNA quantification. In particular, samples are prepared and analyzed according to the procedure set forth in Jester et. al., “PPARγ regulates mouse meibocyte differentiation and lipid synthesis,” The Ocular Surface 14.4 (2016): 484-494, the disclosure of which is herein incorporated by […]. The results of the quantification are shown in FIGS. 1-4, where the vertical (Y) axis of each plot corresponds to the fold change in response observed.
To assess the effects on gene expression mediation via PPARγ signaling, a PPARγ-specific antagonist (T0070907; (“T”)) is added to inhibit PPARγ signaling. […] As such, Loquat leaf is shown to have specific and synergistic PPARγ agonist activity that may be unrelated to individual phytochemical components thereof.

Row | SMILES | % Lipid Mean (percent positive control, Rosi set at 100%) ([1]; 30 μM, 6 days) | Nuclei Mean ([1]; 30 μM, 6 days) | PPARγ response gene expression (mRNA of ADFP, ELOVL4, ANGPTL4; PPARγ), fold change, in words [2] | Effect on lipid synthesis (in words) [1]
1 | CN(CCOc1ccc(CC2SC(=O)NC2=O)cc1)c1ccccn1 (stereo not drawn) [Rosi, Rosiglitazone] | 97.5% and 100% | 1622.13 and 1070 |  | 
2 | C[C@H]1[C@H](C)CC[C@]2(C(=O)O)CC[C@]3(C)C(=CC[C@@H]4[C@@]5(C)CC[C@H](O)C(C)(C)[C@@H]5CC[C@]43C)[C@H]12 [ursolic acid] |  |  | no individual effects | no individual effects
3 | CC1(C)CC[C@]2(C(=O)O)CC[C@]3(C)C(=CC[C@@H]4[C@@]5(C)CC[C@H](O)C(C)(C)[C@@H]5CC[C@]43C)[C@@H]2C1 [oleanolic acid] |  |  | no individual effects | no individual effects
